Assay results as given in PMC12549899 (Nature Communications, 2025).
“And” between values parts separate entries of the source, which are not always exact repeats. Equal values may be shown once. Read-outs that look alike come from different tables or passages of the source.

Molecular target: T1, DrOTOP1 I565W (Danio rerio, UniProt Q7ZWK8, I565W)
T1 construct: A previously generated codon-optimized full-length DrOTOP1[8]; (UniProt: Q7ZWK8) construct; expressed in transfected cells; host or cells: HEK-293 (CRL-1573, ATCC)
T1 sequence (Q7ZWK8 1-586 I565W): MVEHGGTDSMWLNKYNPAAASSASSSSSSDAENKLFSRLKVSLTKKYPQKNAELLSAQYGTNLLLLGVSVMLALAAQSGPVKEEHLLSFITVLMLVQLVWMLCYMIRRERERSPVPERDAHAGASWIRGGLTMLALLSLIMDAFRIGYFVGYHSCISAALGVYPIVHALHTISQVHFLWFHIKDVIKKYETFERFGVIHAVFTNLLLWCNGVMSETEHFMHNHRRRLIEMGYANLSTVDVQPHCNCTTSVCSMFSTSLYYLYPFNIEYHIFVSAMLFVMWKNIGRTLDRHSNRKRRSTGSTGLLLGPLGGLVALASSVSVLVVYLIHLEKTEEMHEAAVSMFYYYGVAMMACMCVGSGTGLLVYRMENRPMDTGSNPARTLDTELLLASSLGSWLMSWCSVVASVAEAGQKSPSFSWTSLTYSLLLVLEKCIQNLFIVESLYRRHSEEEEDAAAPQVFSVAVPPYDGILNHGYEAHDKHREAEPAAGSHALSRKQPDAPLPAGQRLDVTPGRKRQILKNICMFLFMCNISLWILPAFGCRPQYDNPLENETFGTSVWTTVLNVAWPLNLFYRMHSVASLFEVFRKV
Test: Whole-cell patch-clamp, inhibition of acid-evoked currents, DrOTOP1 I565W (C-domain pocket)
Format: cell-based, zebrafish (Danio rerio)
Set-up: key to inhibition of acid-evoked current, single cells: % inhibition = ((I2peak - I1)/I2peak)*100
Conditions: for LogAbsoluteIC50: concentration in uM
Description: To experimentally verify whether C11 and C2.2 bind in the C-domain pocket as predicted, we used their docked poses to guide mutagenesis. The predicted interactions for C11 and C2.2 include π-stacking with F342 and Y422, potential H-bonding with Q542, N568, and R572 (Fig. 2J, K and Supplementary Fig. 5A), and hydrophobic packing. We generated single-residue mutants of these and other residues in DrOTOP1 that were expected to disrupt specific molecular interactions or to introduce a bulky tryptophan residue (W) to produce steric hindrance.
HEK-293 cells (CRL-1573, ATCC) were cultured in DMEM (Thermofisher 11995073) containing 10% fetal bovine serum (Life Technology 16000044) and Penicillin-Streptomycin (100 I.U./mL) and (100 µg/mL), respectively. Cells were transfected with WT DrOTOP1 or mutant DrOTOP1 channels in 35 mm petri dishes, with ~ 500 ng DNA and 2 μL TransIT-LT1 transfection reagent (Mirus Bio Corporation, Cat # MIR2300) following the manufacturer’s protocol. All constructs were subcloned into a pcDNA3.1 vector that adds an N-terminal fusion tag consisting of an octahistidine tag followed by eGFP, a Gly-Thr-Gly-Thr linker and a 3C protease cleavage site ([…]) followed by WT DrOTOP1, WT mOTOP1, WT hOTOP1, or mutated DrOTOP1. Point mutations were generated via In-Fusion Cloning (Takara) using single-stranded DNA primers generated through IDT and sequence confirmed by Sanger sequencing (GeneWiz).
Whole-cell patch-clamp recording was performed as previously described[6],[22],[25]. Recordings were made with an Axopatch 200B amplifier, digitized with a Digidata 1322a 16-bit data acquisition system, acquired with pClamp 8.2 and analyzed with Clampfit 10 (Molecular Devices). Recordings were sampled at 5 kHz and filtered at 1 kHz. Patch Pipettes with resistance of […] were fabricated from borosilicate glass, and only recordings with a giga-Ohm seal were used in analysis. Membrane potential was held at −80 mV for the duration of recordings. At the beginning of recordings and between, cells were washed with Tyrode’s solution (see below). Once a giga-Ohm seal was reached, cells were lifted and placed in front of microcapillary tubes controlled by a Fast-Step perfusion system (Warner Instruments) so that extracellular solutions could be rapidly exchanged during each experiment.
Standard Tyrode’s solution consisted of 145 mM NaCl, 5 mM KCl, MgCl2, 2 mM CaCl2, 20 mM D-Glucose, and 10 mM HEPES (for pH 7.4). All other extracellular patch-clamp solutions contained 160 mM NMDG-Cl, 2 mM CaCl2, and the following buffers: 10 mM HEPES (for pH 7.4), 10 mM MES (for pH 6.5-5.5), 10 mM CHES for pH 10, and 10 mM HomoPIPES for (pH 5.0). pH adjusted with HCl. When adding compounds to extracellular solutions, the concentration of DMSO in solution was never higher than 0.3%. The pipette contained intracellular solution made up of 120 mM Cs-aspartate, 15 mM CsCl, 2 mM Mg-ATP, 5 mM EGTA, 2.4 mM CaCl2 (100 nM free Ca^2+), and 10 mM HEPES with a pH of 7.3. All extracellular solution osmolarity was adjusted to 300 mOsm and intracellular osmolarity was adjusted to 290 mOsm.
All data are presented as mean ± SEM unless otherwise noted, and each data point represents an independent replicant. Inhibition of compounds was quantified as ((I2peak-I1)/(I2peak))*100, where I1 is the current immediately before wash-off and I2peak is the maximum recovered current (Supplementary Fig. 2). Hill coefficients were determined by the following equation: Y = Bmax*X^h/(Kd^h + X^h). Absolute IC50 was determined by the following equation: Fifty = (Top + Baseline)/2 Y = Bottom + (Top-Bottom)/(1 + ((Top-Bottom)/(Fifty-Bottom) − 1)*(AbsoluteIC50/X)^HillSlope). pH50 curves (Fig. 6G inset) were determined using the following equation: Y = Bottom + (Top-Bottom)/(1 + (EC/X)^HillSlope) where EC = EC50 control. Graphs with electrophysiological data were made in Graphpad Prism 10 (Graphpad Software Inc). […]

C=C(C)COc1ccccc1NC(=O)c1nc[nH]c1C [C2.2]
Hill coefficient: 1.22 | Shift of IC50 compared with WT: ~ 10 fold | inhibition of acid-evoked current, single cells (C2.2 3 uM, Supp. Fig 5G): 6.531 and 5.9632 and 6.805 and 3.704 | inhibition at 3 µM (C2.2 3 uM, Supp. Fig 5G, read-out: inhibition of acid-evoked current, single cells): 5.54% | inhibition of acid-evoked current, single cells (C2.2 10 uM, Supp. Fig 5G): 8.1748 and 9.4295 and 12.133 and 10.612 | inhibition at 10 µM (C2.2 10 uM, Supp. Fig 5G, read-out: inhibition of acid-evoked current, single cells): 8.99% | inhibition of acid-evoked current, single cells (C2.2 30 uM, Supp. Fig 5G): 15.885 and 20.063 and 20.497 and 20.983 and 13.0981 and 19.6998 | inhibition at 30 µM (C2.2 30 uM, Supp. Fig 5G, read-out: inhibition of acid-evoked current, single cells): 23.3% | inhibition at 100 µM (C2.2 100 uM, Supp. Fig 5G, read-out: inhibition of acid-evoked current, single cells): 63.2% | inhibition at 300 µM (C2.2 300 uM, Supp. Fig 5G, read-out: inhibition of acid-evoked current, single cells): 78.2% | HillSlope (best-fit, Supp. Fig 5G): 1.217 | IC50 (best-fit, Top 100, Bottom 0, Supp. Fig 5G, read-out: AbsoluteIC50): 82.9 µM | LogAbsoluteIC50 (best-fit, Supp. Fig 5G): 1.918 | IC50 (pH 5.5, read-out: IC50): 82 µM and 82.9 µM

O=C(/C(=N\O)c1ccccc1)c1ccccc1 [C11, benzil monoxime]
Hill coefficient: 1.57 | Shift of IC50 compared with WT: ~ 2.5 fold | inhibition of acid-evoked current, single cells (C11 10 uM, Supp. Fig 5D): 2.087 and 1.672 | inhibition at 10 µM (C11 10 uM, Supp. Fig 5D, read-out: inhibition of acid-evoked current, single cells): 1.63% | inhibition of acid-evoked current, single cells (C11 30 uM, Supp. Fig 5D): 9.463 and 7.048 and 7.021 | inhibition at 30 µM (C11 30 uM, Supp. Fig 5D, read-out: inhibition of acid-evoked current, single cells): 7.27% | inhibition of acid-evoked current, single cells (C11 100 uM, Supp. Fig 5D): 29.7468 and 24.8826 and 21.3974 and 29.1115 | inhibition at 100 µM (C11 100 uM, Supp. Fig 5D, read-out: inhibition of acid-evoked current, single cells): 29.4% | inhibition of acid-evoked current, single cells (C11 200 uM, Supp. Fig 5D): 48.5849 | inhibition at 200 µM (C11 200 uM, Supp. Fig 5D, read-out: inhibition of acid-evoked current, single cells): 42.1% | inhibition of acid-evoked current, single cells (C11 300 uM, Supp. Fig 5D): 63.41 and 66.778 and 78.1609 and 62.1622 and 62.7854 and 80.0142 and 64.4878 | inhibition at 300 µM (C11 300 uM, Supp. Fig 5D, read-out: inhibition of acid-evoked current, single cells): 71.5% | HillSlope (best-fit, Supp. Fig 5D): 1.566 | IC50 (best-fit, Top 100, Bottom 0, Supp. Fig 5D, read-out: AbsoluteIC50): 190 µM | LogAbsoluteIC50 (best-fit, Supp. Fig 5D): 2.279 | IC50 (pH 5.5, read-out: IC50): 190 µM
